Test results reported in PMC4056445 (Journal of ethnopharmacology, 2011).

Legend:
PDE6 = target: T1, PDE6 (Gallus gallus, UniProt P52731); experiment: PDE6 inhibition, two-step radioactive [3H]cGMP assay; type: biochemical, chicken
T1 sequence (P52731 1-859 limits assumed): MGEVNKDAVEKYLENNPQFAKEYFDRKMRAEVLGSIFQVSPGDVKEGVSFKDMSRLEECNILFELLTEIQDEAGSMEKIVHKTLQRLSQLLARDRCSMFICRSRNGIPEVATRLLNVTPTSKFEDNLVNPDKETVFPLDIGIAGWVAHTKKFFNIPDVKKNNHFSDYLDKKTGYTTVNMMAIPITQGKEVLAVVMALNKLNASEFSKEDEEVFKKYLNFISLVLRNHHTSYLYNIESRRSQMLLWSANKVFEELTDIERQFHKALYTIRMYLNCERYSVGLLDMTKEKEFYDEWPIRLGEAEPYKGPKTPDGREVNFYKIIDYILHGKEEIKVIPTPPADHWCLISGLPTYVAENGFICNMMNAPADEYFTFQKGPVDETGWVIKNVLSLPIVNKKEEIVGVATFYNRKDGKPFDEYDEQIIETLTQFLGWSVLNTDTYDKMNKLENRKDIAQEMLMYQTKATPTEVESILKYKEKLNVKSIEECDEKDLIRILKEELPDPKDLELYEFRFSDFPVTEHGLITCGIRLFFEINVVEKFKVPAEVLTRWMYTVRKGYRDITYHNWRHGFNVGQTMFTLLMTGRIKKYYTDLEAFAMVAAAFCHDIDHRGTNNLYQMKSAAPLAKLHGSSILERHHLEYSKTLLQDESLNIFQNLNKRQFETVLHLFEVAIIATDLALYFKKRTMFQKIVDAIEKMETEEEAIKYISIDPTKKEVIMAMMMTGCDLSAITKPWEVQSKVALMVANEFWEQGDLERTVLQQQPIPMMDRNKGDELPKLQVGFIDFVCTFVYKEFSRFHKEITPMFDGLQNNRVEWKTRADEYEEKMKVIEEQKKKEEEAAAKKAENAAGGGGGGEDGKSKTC

PDE5 = PDE5 (Mus musculus, UniProt Q8CG03); experiment: PDE5 inhibition, two-step radioactive [3H]cGMP assay; type: biochemical; details: for IC50 ratio PDE6/PDE5: pure compounds, selectivity on PDE5 over PDE6

SMILES	IC50 (PDE6)	IC50 (PDE5)	IC50 ratio PDE6/PDE5 (PDE5)	inhibition at 10 µM (PDE6; read-out: % Inhibitory activity at 10 μM PDE6, final concentration 10 μM, n = 3)	inhibition at 10 µM (PDE5; read-out: % Inhibitory activity at 10 μM PDE5, final concentration 10 μM, n = 3)
OCCN(CCO)c1nc(N2CCCCC2)c2nc(N(CCO)CCO)nc(N3CCCCC3)c2n1 [Dipyridamole, dipyridamole]	231 ± 30 nM	1460 ± 810 nM	–	–	–
CCCc1nn(C)c2c(=O)[nH]c(-c3cc(S(=O)(=O)N4CCN(C)CC4)ccc3OCC)nc12 [Sildenafil, sildenafil]	33 ± 10 nM	6.8 nM	4.85	–	–
COc1cc(OC)c2c(=O)cc(-c3ccccc3)oc2c1 [Compound 2, 5,7-dimethoxyflavone]	39500 ± 1000 nM	10600 ± 2090 nM	3.71	> 35%	> 35%
